Laboratory results as given in US9085555B2, “Complement pathway modulators and uses thereof” (priority 2011, dated 2015).

Target: Factor D (Homo sapiens (Human), UniProt P00746)
Assay: biochemical
Type: biochemical
Details: read-out: IC50

Factor D, sequence (P00746 26-253): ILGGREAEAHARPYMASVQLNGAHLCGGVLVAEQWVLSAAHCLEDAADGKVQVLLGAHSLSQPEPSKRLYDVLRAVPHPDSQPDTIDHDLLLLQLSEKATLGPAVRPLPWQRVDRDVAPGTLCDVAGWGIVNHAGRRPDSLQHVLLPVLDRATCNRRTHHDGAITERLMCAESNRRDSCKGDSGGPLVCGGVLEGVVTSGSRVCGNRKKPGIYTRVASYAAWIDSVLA

| Compound | IC50 [nM] |
| --- | --- |
| CC(=O)n1cc(NC(=O)N2CCC[C@H]2C(=O)Nc2cccc(OC(F)(F)F)c2)c2ccccc21 [Example 271, (S)-Pyrrolidine-1,2-dicarboxylic acid 1-[(1-acetyl-1H-indol-3-yl)-amide] 2-[(3-trifluoromethoxy-phenyl)-amide]] | 629 |
| NC(=O)n1cc(NC(=O)N2[C@@H](c3ccccc3)CC[C@H]2C(=O)Nc2cccc(OC(F)(F)F)c2)c2ccccc21 [Example 273, (2S,5R)-5-Phenyl-pyrrolidine-1,2-dicarboxylic acid 1-[(1-carbamoyl-1H-indol-3-yl)-amide] 2-[(3-trifluoromethoxy-phenyl)-amide]] | 2260 |
| NC(=O)n1cc(NC(=O)N2C[C@H](F)C[C@H]2C(=O)Nc2cccc(OC(F)(F)F)c2F)c2ccccc21 [Example 274, (2S,4R)-4-Fluoro-pyrrolidine-1,2-dicarboxylic acid 1-[(1-carbamoyl-1H-indol-3-yl)-amide] 2-[(2-fluoro-3-trifluoromethoxy-phenyl)-amide]] | 14 |
| CC(=O)n1cc(NC(=O)N2[C@H](C(=O)NCc3cccc(Cl)c3F)C[C@@]3(CO)C[C@@H]23)c2ccccc21 [Example 275, (1R,3S,5S)-5-Hydroxymethyl-2-aza-bicyclo[3.1.0]hexane-2,3-dicarboxylic acid 2-[(1-acetyl-1H-indol-3-yl)-amide] 3-(3-chloro-2-fluoro-benzylamide)] | 30 |
| COC(=O)COc1ccc2c(NC(=O)N3[C@@H]4C[C@@H]4C[C@H]3C(=O)Nc3cccc(OC(F)(F)F)c3)cn(C(N)=O)c2c1 [Example 276, (1-Carbamoyl-3-{[(1R,3S,5R)-3-(3-trifluoromethoxy-phenylcarbamoyl)-2-aza-bicyclo[3.1.0]hexane-2-carbonyl]-amino}-1H-indol-6-yloxy)-acetic acid methyl ester] | 1310 |
| CN(C)C(=O)c1cc(Cl)c(F)c(CNC(=O)[C@@H]2C[C@@H](F)CN2C(=O)Nc2cn(C(N)=O)c3ccccc23)c1 [Example 277, (2S,4R)-4-Fluoro-pyrrolidine-1,2-dicarboxylic acid 1-[(1-carbamoyl-1H-indol-3-yl)-amide] 2-(3-chloro-5-dimethylcarbamoyl-2-fluoro-benzylamide)] | 627 |
| Cn1nc(C(C)(C)C)cc1NC(=O)[C@@H]1CCCN1C(=O)Nc1cn(C(N)=O)c2ccccc12 [Example 279, (S)-Pyrrolidine-1,2-dicarboxylic acid 2-[(5-tert-butyl-2-methyl-2H-pyrazol-3-yl)-amide] 1-[(1-carbamoyl-1H-indol-3-yl)-amide]] | 2900 |
| C=CCOc1ccc2c(NC(=O)N3C[C@H](F)C[C@H]3C(=O)NCc3cccc(Cl)c3F)cn(C(N)=O)c2c1 [Example 280, (2S,4R)-4-Fluoro-pyrrolidine-1,2-dicarboxylic acid 1-[(6-allyloxy-1-carbamoyl-1H-indol-3-yl)-amide] 2-(3-chloro-2-fluoro-benzylamide)] | 250 |
| CC(=O)n1cc(NC(=O)N2[C@@H]3C[C@@H]3C[C@H]2C(=O)N[C@H](CN(C)C)c2cccc(Cl)c2F)c2ccccc21 [Example 281, (1R,3S,5R)-2-Aza-bicyclo[3.1.0]hexane-2,3-dicarboxylic acid 2-[(1-acetyl-1H-indol-3-yl)-amide] 3-{[(S)-1-(3-chloro-2-fluoro-phenyl)-2-dimethylamino-ethyl]-amide}] | 18 |
| CNC(=O)n1cc(NC(=O)N2CCC[C@H]2C(=O)Nc2cccc(OC(F)(F)F)c2)c2ccccc21 [Example 282, (S)-Pyrrolidine-1,2-dicarboxylic acid 1-[(1-methylcarbamoyl-1H-indol-3-yl)-amide] 2-[(3-trifluoromethoxy-phenyl)-amide]] | 3680 |
| NC(=O)n1cc(NC(=O)N2CC[C@@H](O)[C@H]2C(=O)NCc2cnc(Cl)s2)c2ccccc21 [Example 283, (2S,3R)-3-Hydroxy-pyrrolidine-1,2-dicarboxylic acid 1-[(1-carbamoyl-1H-indol-3-yl)-amide] 2-[(2-chloro-thiazol-5-ylmethyl)-amide]] | 900 |
| CNC(=O)n1cc(NC(=O)N2[C@H](C(=O)NCc3cccc(Cl)c3F)C[C@@]3(COC)C[C@@H]23)c2ccccc21 [Example 284, (1R,3S,5S)-5-Methoxymethyl-2-aza-bicyclo[3.1.0]hexane-2,3-dicarboxylic acid 3-(3-chloro-2-fluoro-benzylamide) 2-[(1-methylcarbamoyl-1H-indol-3-yl)-amide]] | 286 |
| CC(C)c1cccc(NC(=O)[C@@H]2C[C@H]3C[C@H]3N2C(=O)Nc2cn(C(N)=O)c3ccccc23)c1 [Example 285, (1R,3S,5R)-2-Aza-bicyclo[3.1.0]hexane-2,3-dicarboxylic acid 2-[(1-carbamoyl-1H-indol-3-yl)-amide] 3-[(3-isopropyl-phenyl)-amide]] | 55 |
| NC(=O)n1cc(NC(=O)N2CCC[C@H]2C(=O)Nc2cccc(OC(F)(F)F)c2)c2ccc(Br)cc21 [Example 286, (S)-Pyrrolidine-1,2-dicarboxylic acid 1-[(6-bromo-1-carbamoyl-1H-indol-3-yl)-amide] 2-[(3-trifluoromethoxy-phenyl)-amide]] | 2650 |
| CNC(=O)n1cc(NC(=O)N2[C@@H]3C[C@@H]3C[C@H]2C(=O)N[C@H](CO)c2cccc(Cl)c2F)c2ccccc21 [Example 287, (1R,3S,5R)-2-Azabicyclo[3.1.0]hexane-2,3-dicarboxylic acid 3-{[(S)-1-(3-chloro-2-fluoro-phenyl)-2-hydroxy-ethyl]-amide}2-[(1-methylcarbamoyl-1H-indol-3-yl)-amide]] | 112 |
| CCc1ccc2c(NC(=O)N3CCC[C@H]3C(=O)Nc3cccc(OC(F)(F)F)c3)cn(C(N)=O)c2c1 [Example 288, (S)-Pyrrolidine-1,2-dicarboxylic acid 1-[(1-carbamoyl-6-ethyl-1H-indol-3-yl)-amide] 2-[(3-trifluoromethoxy-phenyl)-amide]] | 1100 |
| CNC(=O)n1cc(NC(=O)N2[C@@H]3C[C@@H]3C[C@H]2C(=O)N[C@H](CN(C)C)c2cccc(Cl)c2F)c2ccccc21 [Example 289, (1R,3S,5R)-2-Aza-bicyclo[3.1.0]hexane-2,3-dicarboxylic acid 3-{[(S)-1-(3-chloro-2-fluoro-phenyl)-2-dimethylamino-ethyl]-amide} 2-[(1-methylcarbamoyl-1H-indol-3-yl)-amide]] | 555 |
| NC(=O)n1cc(NC(=O)N2CCC[C@H]2C(=O)Nc2cccc(OC(F)(F)F)c2)c2ccc(Cl)cc21 [Example 291, (S)-Pyrrolidine-1,2-dicarboxylic acid 1-[(1-carbamoyl-6-chloro-1H-indol-3-yl)-amide] 2-[(3-trifluoromethoxy-phenyl)-amide]] | 3250 |
| COc1ccc2c(c1)c(NC(=O)N1C[C@H](F)C[C@H]1C(=O)NCc1cccc(Cl)c1F)cn2C(N)=O [Example 292, (2S,4R)-4-Fluoro-pyrrolidine-1,2-dicarboxylic acid 1-[(1-carbamoyl-5-methoxy-1H-indol-3-yl)-amide] 2-(3-chloro-2-fluoro-benzylamide)] | 3 |
| NC(=O)n1cc(NC(=O)N2CCS[C@H]2C(=O)NCc2ccc(Cl)s2)c2ccccc21 [Example 293, (S)-Thiazolidine-2,3-dicarboxylic acid 3-[(1-carbamoyl-1H-indol-3-yl)-amide] 2-[(5-chloro-thiophen-2-ylmethyl)-amide]] | 35 |
| NC(=O)n1cc(NC(=O)N2C3CC3C[C@H]2C(=O)NCc2cccc(Cl)c2F)c2cc(F)ccc21 (stereo partly drawn) [Example 294, (1R,3S,5R)-2-Aza-bicyclo[3.1.0]hexane-2,3-dicarboxylic acid 2-[(1-carbamoyl-5-fluoro-1H-indol-3-yl)-amide] 3-(3-chloro-2-fluoro-benzylamide)] | 5 |
| NC(=O)n1cc(NC(=O)N2C3CC3C[C@H]2C(=O)NCc2cnc(Cl)s2)c2ccccc21 (stereo partly drawn) [Example 295, (1R,3S,5R)-2-Aza-bicyclo[3.1.0]hexane-2,3-dicarboxylic acid 2-[(1-carbamoyl-1H-indol-3-yl)-amide] 3-[(2-chloro-thiazol-5-ylmethyl)-amide]] | 150 |
| NC(=O)n1cc(NC(=O)N2C[C@H](F)C[C@H]2C(=O)N[C@@H](c2cccc(Cl)c2)C(F)(F)F)c2ccccc21 [Example 296, (2S,4R)-4-Fluoro-pyrrolidine-1,2-dicarboxylic acid 1-[(1-carbamoyl-1H-indol-3-yl)-amide] 2-{[(S)-1-(3-chloro-phenyl)-2,2,2-trifluoro-ethyl]-amide}] | 218 |
| NC(=O)n1cc(NC(=O)N2C3CC3C[C@H]2C(=O)Nc2cccc(OC(F)(F)F)c2)c2ccc(F)cc21 (stereo partly drawn) [Example 297, (1R,3S,5R)-2-Aza-bicyclo[3.1.0]hexane-2,3-dicarboxylic acid 2-[(1-carbamoyl-6-fluoro-1H-indol-3-yl)-amide] 3-[(3-trifluoromethoxy-phenyl)-amide]] | 350 |
| COc1ccc2c(c1)c(NC(=O)N1C[C@H](F)C[C@H]1C(=O)Nc1cccc(OC(F)(F)F)c1F)cn2C(N)=O [Example 298, (2S,4R)-4-Fluoro-pyrrolidine-1,2-dicarboxylic acid 1-[(1-carbamoyl-5-methoxy-1H-indol-3-yl)-amide] 2-[(2-fluoro-3-trifluoromethoxy-phenyl)-amide]] | 7 |
| NC(=O)n1cc(NC(=O)N2CC[C@H]2C(=O)Nc2cccc(OC(F)(F)F)c2)c2ccccc21 [Example 299, (S)-Azetidine-1,2-dicarboxylic acid 1-[(1-carbamoyl-1H-indol-3-yl)-amide] 2-[(3-trifluoromethoxy-phenyl)-amide]] | 1800 |
| COc1ccc2c(c1)c(NC(=O)N1C3CC3C[C@H]1C(=O)NCc1cccc(Cl)c1F)cn2C(N)=O (stereo partly drawn) [Example 300, (1R,3S,5R)-2-Aza-bicyclo[3.1.0]hexane-2,3-dicarboxylic acid 2-[(1-carbamoyl-5-methoxy-1H-indol-3-yl)-amide] 3-(3-chloro-2-fluoro-benzylamide)] | 4 |
| NC(=O)n1cc(NC(=O)N2CC(F)(F)C[C@H]2C(=O)NCc2cccc(Cl)c2F)c2ccccc21 [Example 301, (S)-4,4-Difluoro-pyrrolidine-1,2-dicarboxylic acid 1-[(1-carbamoyl-1H-indol-3-yl)-amide] 2-(3-chloro-2-fluoro-benzylamide)] | 95 |
